{"source": "patent US9242996B2", "about": "(Novartis AG, priority 2013, dated 2016)", "data": [{"molecular_target": "activated ERK2 (Homo sapiens (Human), UniProt P28482)", "sequence (P28482 whole entry)": "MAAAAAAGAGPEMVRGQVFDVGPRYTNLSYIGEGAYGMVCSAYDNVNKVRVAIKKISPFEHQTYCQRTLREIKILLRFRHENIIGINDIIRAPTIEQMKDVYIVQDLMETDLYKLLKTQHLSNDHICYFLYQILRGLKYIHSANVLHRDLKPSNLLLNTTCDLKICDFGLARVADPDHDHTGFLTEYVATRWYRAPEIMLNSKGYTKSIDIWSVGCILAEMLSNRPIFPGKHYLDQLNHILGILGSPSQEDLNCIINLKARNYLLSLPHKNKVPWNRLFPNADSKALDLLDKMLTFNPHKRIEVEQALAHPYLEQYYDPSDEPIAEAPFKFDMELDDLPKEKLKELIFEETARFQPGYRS", "experiment": "Activated ERK2 (20 pM) Kinase Assay (AlphaScreen, ERKtide phosphorylation)", "assay_type": "biochemical", "details": "0.02 nM ERK2, 400 nM ERKtide peptide, 35 μM ATP, 30 min preincubation", "description": "Activated ERK2 (20 pM) Kinase Assay:\nThe assay was carried out in 20 mM HEPES [pH 7.5], 5 mM MgCl2, 1 mM DTT, 0.01% Tween-20, 0.05% BSA using 0.02 nM ERK2, 400 nM ERKtide peptide and 35 μM ATP (all concentrations are final in the reaction) in a total volume of 10.25 μL. […] Compound dilution series were prepared in 100% DMSO. ERK2 was preincubated with compounds for 30 minutes at ambient temperature. Reaction was initiated by addition of a substrate cocktail of ERKtide peptide and ATP and was allowed to proceed for 4 hours at ambient temperature. Reaction was terminated by addition of 10 μL of a 2× stop buffer consisting of 100 mM Tris-Cl [pH 7.5], 25 mM EDTA, 0.01% Tween 20, 20 μg/mL of AlphaScreen Protein A Acceptor Beads, 20 μg/mL of Streptavidin Donor Beads (PerkinElmer, Waltham, Mass.), and 1:1000 dilution phospho-EGF Receptor (Thr669) antibody (Cat #8808, Cell Signaling Technology, Danvers, Mass.). Terminated reactions were read, after overnight incubation in the dark, on an EnVision Multilabel Plate Reader (PerkinElmer, Waltham, Mass.), with excitation and emission wavelengths set to 680 nm and 570 nm, respectively. IC50 values were determined using a four-parameter fit.", "units": {"IC50": "nM"}, "values": [{"smiles": "Cn1nncc1-c1cnc(N)c(-c2ccc(C(=O)N[C@H](CO)c3cccc(Br)c3)c(F)c2)c1", "note": "[Example 266, (S)-4-(2-amino-5-(1-methyl-1H-1,2,3-triazol-5-yl)pyridin-3-yl)-N-(1-(3-bromophenyl)-2-hydroxyethyl)-2-fluorobenzamide]", "IC50": 0.0487}, {"smiles": "Cn1nncc1-c1cnc(N)c(-c2ccc(C(=O)N[C@H](CO)c3cc(F)cc(I)c3)c(F)c2)c1", "note": "[Example 267, (S)-4-(2-amino-5-(1-methyl-1H-1,2,3-triazol-5-yl)pyridin-3-yl)-2-fluoro-N-(1-(3-fluoro-5-iodophenyl)-2-hydroxyethyl) benzamide]", "IC50": 0.0158}, {"smiles": "Cc1nn(C)cc1-c1cnc(N)c(-c2ccc(C(=O)N[C@H](CO)c3cc(F)cc(C(F)F)c3)c(F)c2)c1", "note": "[Example 270, (S)-4-(2-amino-5-(1,3-dimethyl-1H-pyrazol-4-yl)pyridin-3-yl)-N-(1-(3-(difluoromethyl)-5-fluorophenyl)-2-hydroxyethyl)-2-fluorobenzamide]", "IC50": 0.0467}, {"smiles": "Cc1c(-c2cnc(N)c(-c3ccc(C(=O)N[C@H](CO)c4cc(F)cc(C(F)F)c4)c(F)c3)c2)cnn1C", "note": "[Example 271, (S)-4-(2-amino-5-(1,5-dimethyl-1H-pyrazol-4-yl)pyridin-3-yl)-N-(1-(3-(difluoromethyl)-5-fluorophenyl)-2-hydroxyethyl)-2-fluorobenzamide]", "IC50": 0.0308}, {"smiles": "Cc1c(-c2cnc(N)c(-c3ccc(C(=O)N[C@H](CO)c4cc(F)cc(C(F)F)c4)c(F)c3)c2)cnn1C(F)F", "note": "[Example 273, (S)-4-(2-amino-5-(1-(difluoromethyl)-5-methyl-1H-pyrazol-4-yl)pyridin-3-yl)-N-(1-(3-(difluoromethyl)-5-fluorophenyl)-2-hydroxyethyl)-2-fluorobenzamide]", "IC50": 0.0482}, {"smiles": "Cc1nn(C(F)F)cc1-c1cnc(N)c(-c2ccc(C(=O)N[C@H](CO)c3cc(F)cc(C(F)F)c3)c(F)c2)c1", "note": "[Example 274, (S)-4-(2-amino-5-(1-(difluoromethyl)-3-methyl-1H-pyrazol-4-yl)pyridin-3-yl)-N-(1-(3-(difluoromethyl)-5-fluorophenyl)-2-hydroxyethyl)-2-fluorobenzamide]", "IC50": 0.0312}, {"smiles": "Cc1c(-c2cnc(N)c(-c3ccc(C(=O)N[C@H](CO)c4cccc(C(F)F)c4)c(F)c3)c2)cnn1C(F)F", "note": "[Example 275, (S)-4-(2-amino-5-(1-(difluoromethyl)-5-methyl-1H-pyrazol-4-yl)pyridin-3-yl)-N-(1-(3-(difluoromethyl)phenyl)-2-hydroxyethyl)-2-fluorobenzamide]", "IC50": 0.0745}, {"smiles": "Cc1c(-c2cnc(N)c(-c3ccc(C(=O)N[C@H](CO)c4cccc(C(F)F)c4)c(F)c3)c2)cnn1C", "note": "[Example 276, (S)-4-(2-amino-5-(1,5-dimethyl-1H-pyrazol-4-yl)pyridin-3-yl)-N-(1-(3-(difluoromethyl)phenyl)-2-hydroxyethyl)-2-fluorobenzamide]", "IC50": 0.0371}, {"smiles": "Cc1nn(C)cc1-c1cnc(N)c(-c2ccc(C(=O)N[C@H](CO)c3cccc(C(F)F)c3)c(F)c2)c1", "note": "[Example 277, (S)-4-(2-amino-5-(1,3-dimethyl-1H-pyrazol-4-yl)pyridin-3-yl)-N-(1-(3-(difluoromethyl)phenyl)-2-hydroxyethyl)-2-fluorobenzamide]", "IC50": 0.0707}, {"smiles": "Cc1c(-c2cnc(N)c(-c3ccc(C(=O)N[C@H](C)c4cc(F)cc(S(C)(=O)=O)c4)c(F)c3)c2)cnn1C(F)F", "note": "[Example 278, (R)-4-(2-amino-5-(1-(difluoromethyl)-5-methyl-1H-pyrazol-4-yl)pyridin-3-yl)-2-fluoro-N-(1-(3-fluoro-5-(methylsulfonyl)phenyl)ethyl) benzamide]", "IC50": 0.146}, {"smiles": "Cn1nncc1-c1cnc(N)c(-c2ccc(C(=O)N[C@H](CO)c3cccc(C(F)F)c3)c(F)c2)c1", "note": "[Example 301]", "IC50": 0.0933}, {"smiles": "NC[C@@H](NC(=O)c1ccc(-c2nc([C@@H]3CC[C@@H](O)[C@H](F)C3)cnc2N)cc1F)c1cc(F)cc(I)c1", "note": "[Example 315, N-((S)-2-amino-1-(3-fluoro-5-iodophenyl)ethyl)-4-(3-amino-6-((1R,3R,4R)-3-fluoro-4-hydroxy-cyclohexyl)pyrazin-2-yl)-2-fluorobenzamide]", "IC50": 0.005}, {"smiles": "Nc1ncc(C2CCOCC2)nc1-c1ccc(C(=O)N[C@@H](C#CC2CC2)CO)c(F)c1", "note": "[Example 321, (S)-4-(3-amino-6-(tetrahydro-2H-pyran-4-yl)pyrazin-2-yl)-N-(4-cyclopropyl-1-hydroxybut-3-yn-2-yl)-2-fluorobenzamide]", "IC50": 84.9}, {"smiles": "Nc1ncc(C2CCOCC2)nc1-c1ccc(C(=O)N[C@H](CO)c2cc(F)cc(CF)c2)c(F)c1", "note": "[Example 329, (S)-4-(3-amino-6-(tetrahydro-2H-pyran-4-yl)pyrazin-2-yl)-2-fluoro-N-(1-(3-fluoro-5-(fluoromethyl)phenyl)-2-hydroxyethyl) benzamide]", "IC50": 0.01}, {"smiles": "Nc1ncc(C2CCOCC2)nc1-c1ccc(C(=O)N[C@H](CO)c2cc(F)cc(Cl)c2)c(F)c1", "note": "[Example 330, (S)-4-(3-amino-6-(tetrahydro-2H-pyran-4-yl)pyrazin-2-yl)-N-(1-(3-chloro-5-fluorophenyl)-2-hydroxyethyl)-2-fluorobenzamide]", "IC50": 0.0222}, {"smiles": "C[C@@H](O)[C@@H](NC(=O)c1ccc(-c2nc(C3CCOCC3)cnc2N)cc1F)c1cccc(Cl)c1", "note": "[Example 331, 4-(3-amino-6-(tetrahydro-2H-pyran-4-yl)pyrazin-2-yl)-N-((1S,2R)-1-(3-chlorophenyl)-2-hydroxypropyl)-2-fluorobenzamide]", "IC50": 0.0645}, {"smiles": "C[C@@H](O)[C@@H](NC(=O)c1ccc(-c2cc(-c3cnn(C)c3)cnc2N)cc1F)c1cccc(Cl)c1", "note": "[Example 332, 4-(2-amino-5-(1-methyl-1H-pyrazol-4-yl)pyridin-3-yl)-N-((1S,2R)-1-(3-chlorophenyl)-2-hydroxypropyl)-2-fluorobenzamide]", "IC50": 0.815}, {"smiles": "Nc1ncc(C2CCOCC2)nc1-c1ccc(C(=O)N[C@H](CO)c2cc(F)cc(C(F)F)c2)c(F)c1", "note": "[Example 335, (S)-4-(3-amino-6-(tetrahydro-2H-pyran-4-yl)pyrazin-2-yl)-N-(1-(3-(difluoromethyl)-5-fluorophenyl)-2-hydroxyethyl)-2-fluorobenzamide]", "IC50": 0.0208}, {"smiles": "CNC[C@@H](NC(=O)c1ccc(-c2nc(C3CCOCC3)cnc2N)cc1F)c1cc(F)cc(Cl)c1", "note": "[Example 336, (S)-4-(3-amino-6-(tetrahydro-2H-pyran-4-yl)pyrazin-2-yl)-N-(1-(3-chloro-5-fluorophenyl)-2-(methylamino)ethyl)-2-fluorobenzamide]", "IC50": 0.0143}, {"smiles": "Nc1ncc([C@H]2CC[C@H](O)CC2)nc1-c1ccc(C(=O)N[C@H](CO)c2cc(F)cc(C(F)F)c2)c(F)c1", "note": "[Example 337, 4-(3-amino-6-((1r,4S)-4-hydroxycyclohexy)pyrazin-2-yl)-N-((S)-1-(3-(difluoromethyl)-5-fluorophenyl)-2-hydroxyethyl)-2-fluorobenzamide]", "IC50": 0.0435}, {"smiles": "Nc1ncc([C@H]2CC[C@H](O)CC2)nc1-c1ccc(C(=O)N[C@H](CO)c2cccc(C(F)(F)F)c2)c(F)c1", "note": "[Example 340, 4-(3-amino-6-((1r,4S)-4-hydroxy-cyclohexyl)pyrazin-2-yl)-2-fluoro-N-((S)-2-hydroxy-1-(3-(trifluoromethyl)phenyl)ethyl) benzamide]", "IC50": 187}, {"smiles": "Nc1ncc([C@H]2CC[C@@H](O)CC2)nc1-c1ccc(C(=O)N[C@H](CO)c2cccc(C(F)(F)F)c2)c(F)c1", "note": "[Example 341, 4-(3-amino-6-((1s,4R)-4-hydroxy-cyclohexyl)pyrazin-2-yl)-2-fluoro-N-((S)-2-hydroxy-1-(3-(trifluoromethyl)phenyl)ethyl) benzamide]", "IC50": 1050}, {"smiles": "NC[C@@H](NC(=O)c1ccc(-c2nc([C@H]3CC[C@H](O)CC3)cnc2N)cc1F)c1cc(F)cc(Br)c1", "note": "[Example 342, N-((S)-2-amino-1-(3-bromo-5-fluorophenyl)ethyl)-4-(3-amino-6-((1r,4S)-4-hydroxycyclohexyl)pyrazin-2-yl)-2-fluorobenzamide]", "IC50": 0.0173}, {"smiles": "NC[C@@H](NC(=O)c1ccc(-c2nc([C@H]3CC[C@H](O)CC3)cnc2N)cc1F)c1cccc(I)c1", "note": "[Example 343, N-((S)-2-amino-1-(3-iodophenyl)ethyl)-4-(3-amino-6-((1r,4S)-4-hydroxy-cyclohexyl)pyrazin-2-yl)-2-fluorobenzamide]", "IC50": 0.011}, {"smiles": "Nc1ncc([C@H]2CC[C@H](O)CC2)nc1-c1ccc(C(=O)N[C@H](CO)c2cc(F)cc(I)c2)c(F)c1", "note": "[Example 344, 4-(3-amino-6-((1r,4S)-4-hydroxy-cyclohexyl)pyrazin-2-yl)-2-fluoro-N-((S)-1-(3-fluoro-5-iodophenyl)-2-hydroxyethyl) benzamide]", "IC50": 0.00977}, {"smiles": "Nc1ncc([C@H]2CC[C@@H](O)CC2)nc1-c1ccc(C(=O)N[C@H](CO)c2cc(F)cc(I)c2)c(F)c1", "note": "[Example 345, 4-(3-amino-6-((1s,4R)-4-hydroxy-cyclohexyl)pyrazin-2-yl)-2-fluoro-N-((S)-1-(3-fluoro-5-iodophenyl)-2-hydroxyethyl) benzamide]", "IC50": 0.0956}, {"smiles": "Nc1ncc([C@H]2CC[C@H](O)CC2)nc1-c1ccc(C(=O)N[C@H](CO)c2cccc(I)c2)c(F)c1", "note": "[Example 346, 4-(3-amino-6-((1r,4S)-4-hydroxy-cyclohexyl)pyrazin-2-yl)-2-fluoro-N-((S)-2-hydroxy-1-(3-iodophenyl)ethyl) benzamide]", "IC50": 0.0175}]}]}
